In US10239843B2 (CANCER RESEARCH TECHNOLOGY LIMITED, priority 2014, dated 2019):
Read-outs that look alike come from different tables or passages of the source.

Legend:
Human Full Length PARG = Human Full Length PARG (Homo sapiens (Human), UniProt Q86W56); test: PARG enzyme assay (TR-FRET); assay type: biochemical
PARG in HeLa cell line = test: PARG cell assay (PAR chain immunofluorescence after MMS); assay type: cell-based; conditions: HeLa cells
Outline: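 HeLa cells were dosed with compound for 1 h, then given MMS at 50 μg/mL final for a further hour. Cells were methanol-fixed, permeabilised and stained overnight at 4° C with anti-PAR monoclonal antibody. Retained nuclear PAR chains, detected by indirect immunofluorescence, indicate PARG inhibition.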

[1] = Homo sapiens, MMS treatment, read-out: PARG Cell IC50
[2] = MMS treatment, read-out: PARG Cell IC50
[3] = read-out: PARG Biochem IC50 Geomean
[4] = MMS 50 μg/mL, read-out: PARG Cell IC50 Geomean
[5] = Homo sapiens, MMS 50 μg/mL, read-out: PARG Cell IC50 Geomean

Chain of Human Full Length PARG (Q86W56 whole entry): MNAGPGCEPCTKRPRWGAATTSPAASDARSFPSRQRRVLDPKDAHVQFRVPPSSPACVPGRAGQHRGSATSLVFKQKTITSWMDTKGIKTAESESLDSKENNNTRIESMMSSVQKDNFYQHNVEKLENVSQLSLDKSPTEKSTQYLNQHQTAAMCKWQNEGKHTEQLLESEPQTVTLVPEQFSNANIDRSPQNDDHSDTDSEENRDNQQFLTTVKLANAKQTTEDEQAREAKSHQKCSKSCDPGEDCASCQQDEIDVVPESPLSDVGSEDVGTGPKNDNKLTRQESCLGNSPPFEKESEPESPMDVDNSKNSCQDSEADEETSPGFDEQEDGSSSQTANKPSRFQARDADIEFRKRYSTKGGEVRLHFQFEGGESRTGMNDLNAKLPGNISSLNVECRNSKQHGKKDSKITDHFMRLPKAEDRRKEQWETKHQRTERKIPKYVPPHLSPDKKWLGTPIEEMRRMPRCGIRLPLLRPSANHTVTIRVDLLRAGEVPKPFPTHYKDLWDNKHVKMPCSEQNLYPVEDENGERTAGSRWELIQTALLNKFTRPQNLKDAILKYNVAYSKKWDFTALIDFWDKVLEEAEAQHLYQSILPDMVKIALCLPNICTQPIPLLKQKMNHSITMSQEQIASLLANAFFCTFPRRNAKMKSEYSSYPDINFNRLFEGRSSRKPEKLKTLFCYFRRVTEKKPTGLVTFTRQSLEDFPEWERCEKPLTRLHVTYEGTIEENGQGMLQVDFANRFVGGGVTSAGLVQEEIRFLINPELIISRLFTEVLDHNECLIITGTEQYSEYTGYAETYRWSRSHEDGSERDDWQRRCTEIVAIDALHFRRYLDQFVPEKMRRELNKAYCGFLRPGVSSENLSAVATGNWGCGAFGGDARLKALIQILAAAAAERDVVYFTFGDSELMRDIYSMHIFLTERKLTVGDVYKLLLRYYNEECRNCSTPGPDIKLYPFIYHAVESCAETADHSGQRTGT

`CCC(=O)Cn1c(=O)c2cc(S(=O)(=O)NC3(C)CC3)ccc2n(C)c1=O` [Example 469, 1-Methyl-N-(1-methylcyclopropyl)-2,4-dioxo-3-(2-oxobutyl)quinazoline-6-sulfonamide] was tested, and the IC50 (Human Full Length PARG; read-out: PARG Biochem IC50) was 1200 nM and the IC50 (PARG in HeLa cell line; [1]) was 663 nM.

`Cc1cc(Cn2c(=O)c3cc(S(=O)(=O)NC4(C)CC4)cc(-c4ccc(C)s4)c3n(C)c2=O)on1` [Example 493, 1-Methyl-N-(1-methylcyclopropyl)-3-[(3-methylisoxazol-5-yl)methyl]-8-(5-methyl-2-thienyl)-2,4-dioxo-quinazoline-6-sulfonamide] showed an IC50 (Human Full Length PARG; read-out: PARG Biochem IC50) of 453 nM and an IC50 (PARG in HeLa cell line; [1]) of 524 nM.

`CCCn1c(=O)n(Cc2cc(C)no2)c(=O)c2cc(S(=O)(=O)NC3(CF)CC3)ccc21` [Example 535, N-[1-(Fluoromethyl)cyclopropyl]-3-[(3-methylisoxazol-5-yl)methyl]-2,4-dioxo-1-propyl-quinazoline-6-sulfonamide] was tested, and the IC50 (Human Full Length PARG; read-out: PARG Biochem IC50) was 191 nM and the IC50 (PARG in HeLa cell line; [1]) was 147 nM.

With `Cn1cc(Cn2c(=O)[nH]c3ccc(S(=O)(=O)NC4(C(F)F)CC4)cc3c2=O)cn1` [Example 456, N-[1-(Difluoromethyl)cyclopropyl]-3-[(1-methylpyrazol-4-yl)methyl]-2,4-dioxo-1H-quinazoline-6-sulfonamide] the IC50 (Human Full Length PARG; read-out: PARG Biochem IC50) was 4110 nM and the IC50 (PARG in HeLa cell line; [2]) was 5600 nM.

`Cn1cc(Cn2c(=O)c3cc(S(=O)(=O)NC4(C#N)CC4)ccc3n(CC3COC3)c2=O)cn1` [Example 354] was tested, and the IC50 (Human Full Length PARG; [3]) was 164 nM and the IC50 (PARG in HeLa cell line; [4]) was 18000 nM.

`Cc1cc(Cn2c(=O)c(Cc3cnn(C)c3)cc3cc(S(=O)(=O)NC4(C)CC4)ccc32)n(C)n1` [Example 492, 1-[(2,5-Dimethylpyrazol-3-yl)methyl]-N-(1-methylcyclopropyl)-3-[(1-methylpyrazol-4-yl)methyl]-2-oxo-quinoline-6-sulfonamide] gave an IC50 (Human Full Length PARG; read-out: PARG Biochem IC50) of 489 nM and an IC50 (PARG in HeLa cell line; [1]) of 741 nM.

`CN1CCCCC1Cn1c(=O)n(Cc2cnn(C)c2)c(=O)c2cc(S(=O)(=O)NC3(C)CC3)ccc21` (stereo not drawn) [Example 238] was tested, and the IC50 (Human Full Length PARG; [3]) was 158 nM and the IC50 (PARG in HeLa cell line; [5]) was 220 nM.

`Cc1cc(Cn2c(=O)c3cc(S(=O)(=O)NC4(C)CC4)ccc3n(CC3CCC(=O)CC3)c2=O)on1` [Example 421, N-(1-Methylcyclopropyl)-3-[(3-methylisoxazol-5-yl)methyl]-2,4-dioxo-1-[(4-oxocyclohexyl)methyl]quinazoline-6-sulfonamide] showed an IC50 (Human Full Length PARG; read-out: PARG Biochem IC50) of 193 nM and an IC50 (PARG in HeLa cell line; [2]) of 589 nM.

`Cc1cc(Cn2c(=O)n(CC#N)c(=O)c3cc(S(=O)(=O)NC4(C)CC4)ccc32)n(C)n1` [Example 192] gave an IC50 (Human Full Length PARG; [3]) of 274 nM and an IC50 (PARG in HeLa cell line; [4]) of 1100 nM.

For `CC1(NS(=O)(=O)c2ccc3c(c2)c(=O)n(CC#N)c(=O)n3Cc2ccc(F)cc2)CC1` [Example 186], the IC50 (Human Full Length PARG; [3]) was 441 nM and the IC50 (PARG in HeLa cell line; [5]) was 307 nM.

Compound `Cn1cc(Cn2c(=O)c3cc(S(=O)(=O)NC4(C)CC4)ccc3n(CC3CCCC3)c2=O)cn1` [Example 279] has an IC50 (Human Full Length PARG; [3]) of 168 nM and an IC50 (PARG in HeLa cell line; [5]) of 51 nM.

Work on `Cc1cc(Cn2c(=O)n(Cc3cnn(C)c3)c(=O)c3cc(S(=O)(=O)NC4(C#N)CC4)ccc32)on1` [Example 359] yielded an IC50 (Human Full Length PARG; [3]) of 43 nM and an IC50 (PARG in HeLa cell line; [5]) of 1100 nM.

With `Cc1cnc(Cn2c(=O)n(Cc3cnn(C)c3)c(=O)c3cc(S(=O)(=O)NC4(CF)CC4)ccc32)cn1` [Example 569, N-[1-(Fluoromethyl)cyclopropyl]-1-[(5-methylpyrazin-2-yl)methyl]-3-[(1-methylpyrazol-4-yl)methyl]-2,4-dioxo-quinazoline-6-sulfonamide] the IC50 (Human Full Length PARG; read-out: PARG Biochem IC50) was 130 nM and the IC50 (PARG in HeLa cell line; [1]) was 128 nM.

`CN(C)C(=O)c1cc(S(=O)(=O)NC2(C)CC2)cc2c(=O)n(Cc3cnn(C)c3)c(=O)[nH]c12` [Example 449, N,N-Dimethyl-6-[(1-methylcyclopropyl)sulfamoyl]-3-[(1-methylpyrazol-4-yl)methyl]-2,4-dioxo-1H-quinazoline-8-carboxamide] was tested, and the IC50 (Human Full Length PARG; read-out: PARG Biochem IC50) was 5780 nM and the IC50 (PARG in HeLa cell line; [1]) was 13200 nM.

In the case of `COCCn1c(=O)n(Cc2cc(C)no2)c(=O)c2cc(S(=O)(=O)NC3(C)CC3)ccc21` [Example 274], the IC50 (Human Full Length PARG; [3]) is reported as 237 nM and the IC50 (PARG in HeLa cell line; [4]) is reported as 166 nM.

`Cc1cc(Cn2nc(C3CC3)c3ccc(S(=O)(=O)NC4(C)CC4)cc3c2=O)on1` [Example 313] gave an IC50 (Human Full Length PARG; [3]) of 349 nM and an IC50 (PARG in HeLa cell line; [4]) of 420 nM.

Compound `Cn1cc(Cn2c(=O)c3cc(S(=O)(=O)NC4(CF)CC4)ccc3n(Cc3nncs3)c2=O)cn1` [Example 589, N-[1-(Fluoromethyl)cyclopropyl]-3-[(1-methylpyrazol-4-yl)methyl]-2,4-dioxo-1-(1,3,4-thiadiazol-2-ylmethyl)quinazoline-6-sulfonamide] has an IC50 (Human Full Length PARG; read-out: PARG Biochem IC50) of 55 nM and an IC50 (PARG in HeLa cell line; [1]) of 187 nM.

`Cn1cc(Cn2c(=O)c3cc(S(=O)(=O)NC4(CF)CC4)ccc3n(Cc3cnsc3)c2=O)cn1` [Example 577, N-[1-(Fluoromethyl)cyclopropyl]-1-(isothiazol-4-ylmethyl)-3-[(1-methylpyrazol-4-yl)methyl]-2,4-dioxo-quinazoline-6-sulfonamide] was tested, and the IC50 (Human Full Length PARG; read-out: PARG Biochem IC50) was 24 nM and the IC50 (PARG in HeLa cell line; [2]) was 36 nM.

`Cn1cc(Cn2c(=O)c3cc(S(=O)(=O)NC4(C)CC4)c(F)cc3n(Cc3ccc(F)cc3)c2=O)cn1` [Example 390, 7-Fluoro-1-[(4-fluorophenyl)methyl]-N-(1-methylcyclopropyl)-3-[(1-methylpyrazol-4-yl)methyl]-2,4-dioxo-quinazoline-6-sulfonamide] was tested, and the IC50 (Human Full Length PARG; [3]) was 102 nM and the IC50 (PARG in HeLa cell line; [4]) was 70 nM.

`CCOCCn1c(=O)n(Cc2cnn(C)c2)c(=O)c2cc(S(=O)(=O)NC3(CF)CC3)ccc21` [Example 612] was tested, and the IC50 (Human Full Length PARG; read-out: PARG Biochem IC50) was 194 nM and the IC50 (PARG in HeLa cell line; [1]) was 178 nM.

Work on `Cn1c(=O)c2cc(S(=O)(=O)NC3(C)CC3)ccc2n(Cc2cncs2)c1=O` [Example 143] yielded an IC50 (Human Full Length PARG; [3]) of 342 nM and an IC50 (PARG in HeLa cell line; [4]) of 538 nM.

Compound `Cc1cc(Cn2c(=O)c3cc(S(=O)(=O)NC4(CF)CC4)ccc3n(Cc3nncn3C)c2=O)on1` [Example 551, N-[1-(Fluoromethyl)cyclopropyl]-3-[(3-methylisoxazol-5-yl)methyl]-1-[(4-methyl-1,2,4-triazol-3-yl)methyl]-2,4-dioxo-quinazoline-6-sulfonamide] has an IC50 (Human Full Length PARG; read-out: PARG Biochem IC50) of 404 nM and an IC50 (PARG in HeLa cell line; [1]) of 20400 nM.

With `Cn1cc(Cn2c(=O)c3cc(S(=O)(=O)NC4(C)CC4)ccc3n(CC3CCC3)c2=O)cn1` [Example 281] the IC50 (Human Full Length PARG; [3]) was 76 nM and the IC50 (PARG in HeLa cell line; [5]) was 44 nM.

Work on `Cc1cc(Cn2c(=O)c3cc(S(=O)(=O)NC4(C)CC4)ccc3n(CCF)c2=O)on1` [Example 411, 1-(2-Fluoroethyl)-N-(1-methylcyclopropyl)-3-[(3-methylisoxazol-5-yl)methyl]-2,4-dioxo-quinazoline-6-sulfonamide] yielded an IC50 (Human Full Length PARG; read-out: PARG Biochem IC50) of 409 nM and an IC50 (PARG in HeLa cell line; [1]) of 104 nM.

Work on `Cc1cc(Cn2c(=O)n(Cc3cnn(C)c3)c(=O)c3cc(S(=O)(=O)NC4(C(F)(F)F)CC4)ccc32)n(C)n1` [Example 485, 1-[(2,5-Dimethylpyrazol-3-yl)methyl]-3-[(1-methylpyrazol-4-yl)methyl]-2,4-dioxo-N-[1-(trifluoromethyl)cyclopropyl]quinazoline-6-sulfonamide] yielded an IC50 (Human Full Length PARG; read-out: PARG Biochem IC50) of 7100 nM and an IC50 (PARG in HeLa cell line; [2]) of 4070 nM.

Compound `Cn1cc(Cn2c(=O)c3cc(S(=O)(=O)NC4(C(F)F)CC4)ccc3n(CC3CC3)c2=O)cn1` [Example 458, 1-(Cyclopropylmethyl)-N-[1-(difluoromethyl)cyclopropyl]-3-[(1-methylpyrazol-4-yl)methyl]-2,4-dioxo-quinazoline-6-sulfonamide] has an IC50 (Human Full Length PARG; read-out: PARG Biochem IC50) of 1070 nM and an IC50 (PARG in HeLa cell line; [1]) of 555 nM.

`Cc1cc(Cn2c(=O)n(Cc3cnn(C)c3)c(=O)c3cc(S(=O)(=O)NC4(C#N)CC4)ccc32)n(C)n1` [Example 345] gave an IC50 (Human Full Length PARG; [3]) of 61 nM and an IC50 (PARG in HeLa cell line; [5]) of 2880 nM.
